Experimental data as given in patent US5254566A, “Decahydroquinoline compounds” (Roussel Uclaf, priority 1991, dated 1993).
Counter-ions that a name gives are not always drawn.

Key:
[1] = system: Plasmodium falciparum FCC2 strain sensitive to chloroquine; assay: Anti-paludal activity in vitro: inhibition of proliferation in continuous culture, FCC2 strain; assay type: cell-based; details: parasitemia relative to controls, incubation 48 hours, RPS 10 medium, 5% CO2, read-out: ED50 (FCC2 strain sensitive to chloroquine)
Description: (§1) 2) Test for determining the anti-paludal activity in vitro
(§2) The culturing of Plasmodium falciparum "in vitro" was carried out in cupulas on polystyrene plates used for tissue culture. It was carried out at 37° C. in a CO2 oven by the technique of TRAGER et al (1976-1978) on a modified RPMI 1640 medium (AZOULAY et al 1983) buffered with a mixture of HEPES buffer (40 m.moles/l), glucose (4 g/l) and 10 percent human serum. The anti-malarial activity "in vitro" of the different products tested was studied on two different strains of Plasmodium falciparum, namely an FCC2 strain sensitive to chloroquine and an FZ strain resistant to chloroquine (R3 type resistance). […]
(§3) 0.7 ml of the globular suspension was deposited in each cupula and each concentration of chosen product was tested on 3 cupulas. […] After an incubation time of 48 hours without renewing the medium in a steam chest with a CO2 content of 5%, the parasitemia content of each cupula was evaluated.
(§4) To do this, the canisters were removed from the steam chest and were left for 10 minutes at rest under a hood with laminar flux. […] On these crush preparations, fixed and colored, the different forms of the parasite were counted for 2000 to 3000 red blood corpuscles per plate. The results were expressed as the percentage of proliferation relative to the controls. […]

[2] = system: Plasmodium falciparum FZ strain resistant to chloroquine; assay: Anti-paludal activity in vitro: inhibition of proliferation in continuous culture, FZ strain; assay type: cell-based; details: R3 type resistance, parasitemia relative to controls, incubation 48 hours, RPS 10 medium, 5% CO2, read-out: ED50 (FZ strain resistant to chloroquine)
Description: as §1, §2, §3, §4

## Clc1ccc2c(N3CCC[C@@H]4CCC[C@@H](N5CCCC5)[C@@H]43)ccnc2c1 (relative stereo) [Example 2, (4a α, 8α, 8aα) (±) 1-(7-chloro-4-quinolinyl)-decahydro-8-(1-pyrrolidinyl)-quinoline dihydrochloride]
[1]
  IC50: 0.35 µg/mL
[2]
  IC50: 0.34 µg/mL
